Data taken from US20240108683A1, “Method for Side Effect Reduction in the Use of Statins Via Physiologically Synthesized Glutathione” (Proimmune Co. LLC, priority 2014, published 2024).

What was measured:
[1] = as compared to L-cysteine; cited from earlier work
oxidized lipid products = assay: Human clinical trial, scavenging of oxidized lipid products; format: in vivo
Excerpt: Moreover, the pharmacological effect of the composition of the instant invention as a replacement of the statin model was unexpected. […] Reason: the instant invention physiologically provides more rate-limiting L-cysteine available in the cell together with the other constituents of glutathione.

SMILES | water solubility [1] | scavenging of oxidized lipid products (oxidized lipid products) [%]
N[C@@H](CSSC[C@H](N)C(=O)O)C(=O)O [L-cystine] | water insoluble | –
CC(=O)N[C@@H](CS)C(=O)O [N-acetylcysteine] | – | 1
